Results reported in patent US20050250765A1, “Diazepinones as antiviral agents” (priority 2000, published 2005).

tested on: not listed separately; assay: Metabolic stability, in vitro half-life in human liver microsomes; format: in vitro ADME; settings: liver microsomes (pooled), 30 μM compound, 0.5 mg/mL pooled microsomal protein, 1.0 mM NADPH, 37° C., pH 7.4, read-out: t½ (min) Human Liver Microsome Preparation
Procedure: Compounds were individually incubated (30 μM, dissolved in DMSO) with human and mouse liver microsomes. The incubation consisted of 50 mM KPO4, pH 7.4 buffer with 0.5 mg/mL pooled microsomal protein, 30 μM compound, and 1.0 mM NADPH. The total incubate volume was 0.5 mL. The incubate solution was pro-incubated for 3 minutes at 37° C. and the reaction initiated by the addition of NADPH. At 0, 10, 20, and 40 minutes 50 μL aliquots were removed and quenched with 100 μL acetonitrile and 25 μL of internal standard. Standard curves of each compound were prepared in a simialr manner at a concentration range of 7.5 μM to 45 μM. Th in vitro metabolic half-life determinations of these preparations were determined from the concentration vs. time plots using WinNonlin software. The in vitro half-life data represents the extent of oxidative and hydrolytic metabolism.

| half-life at 30 μM [min] | Compound |
| --- | --- |
| 200 | CCN1CCNC(=O)c2oc3ccc(OC)cc3c21 [H, 5-Ethyl-3-methoxy-5,6,7,8-tetrahydro-10-oxa-5,8-diaza-benzo[a]azulen-9-one] |
| > 200 | COc1cccc(CN2CCNC(=O)c3ccc4cnccc4c32)c1 [FF4, 11-(3-Methoxy-benzyl)-8,9,10,11-tetrahydro-3,8,11-triaza-cyclohepta[a]naphthalen-7-one] |
| 66 | COc1ccc2sc3c(c2c1)NCCNC3=O [B, 3-Methoxy-5,6,7,8-tetrahydro-10-thia-5,8-diaza-benzo[a]azulen-9-one] |
| 150 | COc1ccc(CN2CC(C)(C)NC(=O)c3sc4ccc(OC)cc4c32)cc1 [K, 3-Methoxy-5-(4-methoxy-benzyl)-7,7-dimethyl-5,6,7,8-tetrahydro-10-thia-5,8-diaza-benzo[a]azulen-9-one] |
| > 200 | O=C1NCCNc2c1ccc1cnccc21 [F, 8,9,10,11-Tetrahydro-3,8,11-triaza-cyclohepta[a]naphthalen-7-one] |
| 133 | CCOc1ccc2sc3c(c2c1)NCC(C)(C)NC3=O [NN, 3-Ethoxy-7,7-dimethyl-5,6,7,8-tetrahydro-10-thia-5,8-diaza-benzo[a]azulen-9-one] |

tested on: Vero cells; assay: not given; settings: African green monkey, 2 day

| Compound | CC50 [µM] |
| --- | --- |
| COc1cccc(CN2CC(C)NC(=O)c3sc4ccc(OC)cc4c32)c1 (centres unmarked) [EE2, 3-Methoxy-5-(3-methoxy-benzyl)-7-methyl-5,6,7,8-tetrahydro-10-thia-5,8-diaza-benzo[a]azulen-9-one] | 3.4 |
| COc1cccc(CN2CC(C)NC(=O)c3sc4ccc(OC)cc4c32)c1 (centres unmarked) [O, 3-Methoxy-5-(3-methoxy-benzyl)-7-methyl-5,6,7,8-tetrahydro-10-thia-5,8-diaza-benzo[a]azulen-9-one] | 18 |

tested on: not listed separately; assay: in vitro; settings: African green monkey, TC50

| Compound | CC50 at 2 day [µM] |
| --- | --- |
| CCCCN1CCNC(=O)c2sc3ccc([N+](=O)[O-])cc3c21 [DD, 5-n-Butyl-3-nitro-5,6,7,8-tetrahydro-10-thia-5,8-diaza-benz[a]azulen-9-one] | 12.9 |
| COc1ccc2oc3c(c2c1)N(CCC(C)C)CCNC3=O [YY5, 3-Methoxy-5-(3-methyl-butyl)-5,6,7,8-tetrahydro-10-oxa-5,8-diaza-benzo[a]azulen-9-one] | 10 |
| C=C(C)CN1CCNC(=O)c2sc3ccc(F)cc3c21 [CC5, 3-Fluoro-5-(2-methyl-allyl)-5,6,7,8-tetrahydro-10-thia-5,8-diaza-benz[a]azulen-9-one] | 18.5 |
| C=C(C)CN1CCNC(=O)c2sc3ccc([N+](=O)[O-])cc3c21 [Q, 5-(2-Methyl-allyl)-3-nitro-5,6,7,8-tetrahydro-10-thia-5,8-diaza-benz[a]azulen-9-one] | 6 |
| COc1ccc2sc3c(c2c1)NCCNC3=O [B, 3-Methoxy-5,6,7,8-tetrahydro-10-thia-5,8-diaza-benzo[a]azulen-9-one] | 4.5 |
| CCCN1CC(C)(C)NC(=O)c2sc3ccc(OC)cc3c21 [TT, 3-Methoxy-7,7-dimethyl-5-propyl-5,6,7,8-tetrahydro-10-thia-5,8-diaza-benzo[a]azulen-9-one] | 0.4 |
| COc1ccc2sc3c(c2c1)N(Cc1ccc([N+](=O)[O-])cc1)CCNC3=O [SS3, 3-Methoxy-5-(4-nitro-benzyl)-5,6,7,8-tetrahydro-10-thia-5,8-diaza-benzo[a]azulen-9-one] | 83 |
| COc1ccc2sc3c(c2c1)NC(Cc1ccccc1)CNC3=O (centres unmarked) [PP2, 6-Benzyl-3-methoxy-5,6,7,8-tetrahydro-10-thia-5,8-diaza-benzo[a]azulen-9-one] | 1.1 |
| O=C1NCCNc2c1ccc1cnccc21 [F, 8,9,10,11-Tetrahydro-3,8,11-triaza-cyclohepta[a]naphthalen-7-one] | 1.7 |
| COc1cccc(CN2CCNC(=O)c3sc4ccc(OC)cc4c32)c1 [C, 3-Methoxy-5-(3-methoxy-benzyl)-5,6,7,8-tetrahydro-10-thia-5,8-diaza-benzo[a]azulen-9-one] | 10 |
| COc1cccc(CN2CCNC(=O)c3sc4ccc([N+](=O)[O-])cc4c32)c1 [V, 5-(3-Methoxy-benzyl)-3-nitro-5,6,7,8-tetrahydro-10-thia-5,8-diaza-benz[a]azulen-9-one] | 1.3 |
| CN1CCNC(=O)c2ccc3cnccc3c21 [GG4, 11-Methyl-8,9,10,11-tetrahydro-3,8,11-triaza-cyclohepta[a]naphthalen-7-one] | 11.5 |
| COc1ccc2sc3c(c2c1)N(Cc1ccccc1C)CCNC3=O [WW3, 3-Methoxy-5-(2-methyl-benzyl)-5,6,7,8-tetrahydro-10-thia-5,8-diaza-benzo[a]azulen-9-one] | 10.2 |
| C=C(Cl)CN1CCNC(=O)c2sc3ccc(OC)cc3c21 [MM3, 5-(2-Chloro-allyl)-3-methoxy-5,6,7,8-tetrahydro-10-thia-5,8-diaza-benzo[a]azulen-9-one] | 3 |
| CCCN1CCNC(=O)c2sc3ccc(OCC)cc3c21 [D, 3-Ethoxy-5-propyl-5,6,7,8-tetrahydro-10-thia-5,8-diaza-benzo[a]azulen-9-one] | 100 |
| C=CCN1CCNC(=O)c2sc3ccc([N+](=O)[O-])cc3c21 [U, 5-Allyl-3-nitro-5,6,7,8-tetrahydro-10-thia-5,8-diaza-benz[a]azulen-9-one] | 8.1 |
| COc1ccc2sc3c(c2c1)N(Cc1ccc(C#N)cc1)CCN(C)C3=O [AA4, 4-(3-Methoxy-8-methyl-9-oxo-6,7,8,9-tetrahydro-10-thia-5,8-diaza-benzo[a]azulen-5-ylmethyl)-benzonitrile] | 100 |

tested on: Vero cells; assay: not given; settings: read-out: TC50; 2-day XTT, no virus

| Compound | CC50 [µM] |
| --- | --- |
| 5-(3-Methoxy-benzyl)-3-nitro-5,6,7,8-tetrahydro-10-thia-5,8-diaza-benz[a]azulen-9-one [W] | 100 |
